Measurements reported in patent US8178506B2, “Oligomeric compounds and compositions for use in modulation of small non-coding RNAs” (Regulus Therapeutics Inc., priority 2003, dated 2012).
In the oligonucleotide strings, read from the 5' end, every base follows the letter of its sugar. An asterisk marks phosphorothioate; unmarked linkages are phosphodiester. Other units and linkages are bracketed, terminal groups are in braces. A string of capitals states the bases alone. e = 2'-O-(2-methoxyethyl) (MOE); [5mC] = 5-methylcytosine

Experiments:
PEPCK-c = PEPCK-c mRNA expression in HepG2 cells; format: cell-based, human; conditions: for PEPCKc mRNA expression: Experiment 2, insulin treated: HepG2 cells transfected with oligomeric compound, 1 nM insulin for four hours, UTC + 1 nM insulin = 100; for PEPCKc mRNA: HepG2 cells, Experiment 1, basal (no insulin), four hours, UTC = 100
adipocytes = assay: Triglyceride accumulation assay in adipocytes; format: cell-based, human; conditions: differentiating adipocytes transfected with oligomeric compound; Table 75

Substance | PEPCKc mRNA expression (PEPCK-c) | PEPCKc mRNA (PEPCK-c) | TG (triglyceride accumulation) (adipocytes) | reduction of PEPCK-c mRNA expression (PEPCK-c; HepG2, 1 nM insulin, 100 nM) [%] | decrease in PEPCK-c mRNA (PEPCK-c; HepG2, basal (no insulin), 100 nM) [%]
327963 (antisense eA*eA*e[5mC]*e[5mC]*eT*eA*eT*e[5mC]*e[5mC]*eT*eG*eA*eA*eT*eT*eA*e[5mC]*eT*eT*eG*eA*eA) [compound 327963] | 94 | 92 | 124 percentage of untreated control (UTC) |  | 
327952 (antisense e[5mC]*eT*eA*e[5mC]*eG*e[5mC]*eG*eT*eA*eT*eT*e[5mC]*eT*eT*eA*eA*eG*e[5mC]*eA*eA*eT*eA) [compound 327952] | 85 | 70 | 93 percentage of untreated control (UTC) |  | 
327957 (antisense e[5mC]*eA*e[5mC]*eA*eA*eG*eT*eT*e[5mC]*eG*eG*eA*eT*e[5mC]*eT*eA*e[5mC]*eG*eG*eG*eT*eT) [compound 327957] | 88 | 59 | 29 percentage of untreated control (UTC) |  | 
327940 (antisense eG*eA*eA*e[5mC]*eA*eG*eG*eT*eA*eG*eT*e[5mC]*eT*eG*eA*eA*e[5mC]*eA*e[5mC]*eT*eG*eG*eG) [compound 327940] |  |  | 62 percentage of untreated control (UTC) |  | 
327964 (antisense e[5mC]*e[5mC]*eA*eA*eG*eT*eT*e[5mC]*eT*eG*eT*e[5mC]*eA*eT*eG*e[5mC]*eA*e[5mC]*eT*eG*eA) [compound 327964] | 122 | 74 | 60 percentage of untreated control (UTC) |  | 
327873 (antisense e[5mC]*eT*eA*e[5mC]*e[5mC]*eA*eT*eA*eG*eG*eG*eT*eA*eA*eA*eA*e[5mC]*e[5mC]*eA*e[5mC]*eT) [compound 327873] |  | 72 | 105 percentage of untreated control (UTC) |  | 
327944 (antisense eA*eA*eA*eG*eT*eG*eT*e[5mC]*eA*eG*eA*eT*eA*e[5mC]*eG*eG*eT*eG*eT*eG*eG) [compound 327944] |  |  | 38 percentage of untreated control (UTC) |  | 
327959 (antisense e[5mC]*eA*eG*e[5mC]*e[5mC]*eG*e[5mC]*eT*eG*eT*e[5mC]*eA*e[5mC]*eA*e[5mC]*eG*e[5mC]*eA*e[5mC]*eA*eG) [compound 327959] | 156 | 139 | 33 percentage of untreated control (UTC) |  | 
327935 (antisense e[5mC]*eT*eA*e[5mC]*e[5mC]*eT*eG*e[5mC]*eA*e[5mC]*eT*eA*eT*eA*eA*eG*e[5mC]*eA*e[5mC]*eT*eT*eT*eA) [compound 327935] |  |  | 41 percentage of untreated control (UTC) |  | 
327971 (antisense eG*eG*eA*eA*eA*eT*e[5mC]*e[5mC]*e[5mC]*eT*eG*eG*e[5mC]*eA*eA*eT*eG*eT*eG*eA*eT) [compound 327971] |  |  | 45 percentage of untreated control (UTC) |  | 
CTAGTGGTCCTAAACATTTCAC (chemistry not given here) [ISIS 327878, uniform 2′-MOE PS; targets mir-203] |  |  |  | 71 | 55
327946 (antisense eA*eG*eG*e[5mC]*eG*eA*eA*eG*eG*eA*eT*eG*eA*e[5mC]*eA*eA*eA*eG*eG*eG*eA*eA) [compound 327946] | 99 | 90 | 82 percentage of untreated control (UTC) |  | 
327936 (antisense eA*e[5mC]*eA*eG*e[5mC]*eT*eG*eG*eT*eT*eG*eA*eA*eG*eG*eG*eG*eA*e[5mC]*e[5mC]*eA*eA) [compound 327936] |  |  | 23 percentage of untreated control (UTC) |  | 
327945 (antisense e[5mC]*eT*eG*eT*eT*e[5mC]*e[5mC]*eT*eG*e[5mC]*eT*eG*eA*eA*e[5mC]*eT*eG*eA*eG*e[5mC]*e[5mC]*eA) [compound 327945] |  |  | 48 percentage of untreated control (UTC) |  | 
327949 (antisense e[5mC]*eA*e[5mC]*eA*eA*eA*eT*eT*e[5mC]*eG*eG*eA*eT*e[5mC]*eT*eA*e[5mC]*eA*eG*eG*eG*eT*eA) [compound 327949] | 101 | 81 | 43 percentage of untreated control (UTC) |  | 
327950 (antisense eT*e[5mC]*eA*eG*eT*eT*eT*eT*eG*e[5mC]*eA*eT*eA*eG*eA*eT*eT*eT*eG*e[5mC]*eA*e[5mC]*eA) [compound 327950] | 82 | 65 | 125 percentage of untreated control (UTC) |  | 
327961 (antisense eG*eG*eG*eG*eT*eA*eT*eT*eT*eG*eA*e[5mC]*eA*eA*eA*e[5mC]*eT*eG*eA*e[5mC]*eA) [compound 327961] | 126 | 98 | 77 percentage of untreated control (UTC) |  | 
327965 (antisense eA*eT*e[5mC]*eA*e[5mC]*eA*eT*eA*eG*eG*eA*eA*eT*eA*eA*eA*eA*eA*eG*e[5mC]*e[5mC]*eA*eT*eA) [compound 327965] | 64 | 63 | 116 percentage of untreated control (UTC) |  | 
327958 (antisense e[5mC]*e[5mC]*eG*eG*e[5mC]*eT*eG*e[5mC]*eA*eA*e[5mC]*eA*e[5mC]*eA*eA*eG*eA*e[5mC]*eA*e[5mC]*eG*eA) [compound 327958] | 106 | 73 | 28 percentage of untreated control (UTC) |  | 
